Results: ChEMBL document CHEMBL1201862, “PubChem BioAssay data set” (2004)
Active and inactive are the calls of the source.

Tests used:
[1] = molecular target: T1, RNA-binding protein pos-1 (Caenorhabditis elegans, UniProt G5EF15); test: disruptors of C. elegans POS-1 RNA interaction – biochemical, fluorescence polarization, dose response (AID 1964);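 note: purified POS-1 fused to maltose binding protein made in E. coli; potency of compounds blocking POS-1 binding to fluorescent RNA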
T1 sequence (G5EF15 whole entry): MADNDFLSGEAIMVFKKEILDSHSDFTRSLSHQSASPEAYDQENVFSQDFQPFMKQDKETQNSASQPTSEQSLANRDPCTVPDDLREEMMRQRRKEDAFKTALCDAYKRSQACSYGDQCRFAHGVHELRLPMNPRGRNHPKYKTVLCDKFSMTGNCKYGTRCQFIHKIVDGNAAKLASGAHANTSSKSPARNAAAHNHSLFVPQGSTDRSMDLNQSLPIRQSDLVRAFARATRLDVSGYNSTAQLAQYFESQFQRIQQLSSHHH

ORF 73 = ORF 73 (Human herpesvirus 8, UniProt O40947); test: KSHV LANA DNA-binding disruption – biochemical, fluorescence polarization, cherry-picked samples, dose response (AID 504725); design: species or system Human gammaherpesvirus 8;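 note: fluorescence polarization of a labeled DNA duplex reporting LANA DNA binding; potency is for inhibitors that block LANA binding to the DNA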
[2] = molecular target: NACHT, LRR and PYD domains-containing protein 1 (Homo sapiens, UniProt Q9C000); test: NALP1 inhibitors in yeast, dose response, luminescent (AID 488860); format: functional
Troponin, cardiac muscle = Troponin, cardiac muscle (Homo sapiens, UniProt P19429+P45379+P63316); test: Fluorescence-based biochemical high throughput dose response assay for activators of the calcium sensitivity of cardiac Regulated Thin Filaments (RTF). [Related pubchem assays (depositor defined):AID493008, AID493018, AID504382, AID504383]; format: protein-complex assay
Keap1/Nrf2 = Keap1/Nrf2 (Homo sapiens, UniProt Q14145); test: disruptors of Keap1 binding to Nrf2 peptide – biochemical, fluorescence polarization, cherry-picked samples, dose response (AID 588683)
Protein RecA = molecular target: T2, Protein RecA (Mycobacterium tuberculosis, UniProt P9WHJ3); test: Fluorescence Cell-Free Homogeneous Dose Retest to Identify Inhibitors of RecA-Intein Splicing Activity. [Related pubchem assays (depositor defined):AID2097, AID2223, AID489010, AID492950]; format: functional
T2 sequence (P9WHJ3 whole entry): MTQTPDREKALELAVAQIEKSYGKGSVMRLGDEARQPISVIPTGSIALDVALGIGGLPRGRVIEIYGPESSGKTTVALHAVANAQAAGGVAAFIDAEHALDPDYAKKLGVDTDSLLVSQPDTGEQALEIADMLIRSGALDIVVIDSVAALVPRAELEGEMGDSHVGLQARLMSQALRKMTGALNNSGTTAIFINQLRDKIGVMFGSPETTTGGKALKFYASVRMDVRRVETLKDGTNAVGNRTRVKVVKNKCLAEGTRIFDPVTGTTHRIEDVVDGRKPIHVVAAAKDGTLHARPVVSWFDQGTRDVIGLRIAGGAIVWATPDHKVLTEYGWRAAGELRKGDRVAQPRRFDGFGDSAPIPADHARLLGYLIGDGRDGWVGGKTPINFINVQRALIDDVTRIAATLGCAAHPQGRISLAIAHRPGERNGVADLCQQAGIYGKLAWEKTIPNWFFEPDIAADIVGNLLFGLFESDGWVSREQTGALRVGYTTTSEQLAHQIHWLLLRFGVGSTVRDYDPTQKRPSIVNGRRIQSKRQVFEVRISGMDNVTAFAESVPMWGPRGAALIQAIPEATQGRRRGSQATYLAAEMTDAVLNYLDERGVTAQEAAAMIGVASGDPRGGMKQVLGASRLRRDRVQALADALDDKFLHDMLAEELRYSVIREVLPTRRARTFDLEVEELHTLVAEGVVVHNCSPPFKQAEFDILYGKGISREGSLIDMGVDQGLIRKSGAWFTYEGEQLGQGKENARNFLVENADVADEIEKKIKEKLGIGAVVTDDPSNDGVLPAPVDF

Caspase-6 = molecular target: T3, Caspase-6 (Homo sapiens, UniProt P55212); test: inhibition of CASP6 peptide cleavage – biochemical, VEID-R110 fluorescence, cherry-pick, dose response (AID 720632)
T3 sequence (P55212 whole entry): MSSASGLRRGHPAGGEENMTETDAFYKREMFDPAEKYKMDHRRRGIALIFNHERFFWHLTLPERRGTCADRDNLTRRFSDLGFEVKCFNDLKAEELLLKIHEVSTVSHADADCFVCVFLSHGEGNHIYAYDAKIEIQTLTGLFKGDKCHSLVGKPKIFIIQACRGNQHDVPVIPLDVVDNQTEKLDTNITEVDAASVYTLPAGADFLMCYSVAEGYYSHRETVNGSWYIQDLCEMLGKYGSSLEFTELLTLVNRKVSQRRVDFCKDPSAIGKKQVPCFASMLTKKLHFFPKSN

[3] = molecular target: Cell division cycle 7-related protein kinase (Homo sapiens, UniProt O00311); format: functional;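 note: value obtained from a kinome-wide kinase panel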
[4] = molecular target: Mitogen-activated protein kinase kinase kinase kinase 5 (Homo sapiens, UniProt Q9Y4K4); format: functional;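 note: measured as one member of a kinome-spanning kinase panel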
Large T antigen = Large T antigen (Simian virus 40, UniProt P03070); format: functional, Betapolyomavirus macacae;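 note: Confirmatory-stage PubChem screen for compounds that inhibit SV40 T antigen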
[5] = molecular target: Tyrosine-protein kinase HCK (Homo sapiens, UniProt P08631); test: Navigating the Kinome. Panel member name: HCK; format: functional
[6] = molecular target: Mast/stem cell growth factor receptor Kit (Homo sapiens, UniProt P10721); format: functional;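 note: KIT entry within a kinase panel assay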
[7] = molecular target: Proto-oncogene tyrosine-protein kinase ROS (Homo sapiens, UniProt P08922); format: functional;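 note: ROS1 tested as one member of a kinome-wide kinase panel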
[8] = molecular target: Serine/threonine-protein kinase SIK2 (Homo sapiens, UniProt Q9H0K1); test: Navigating the Kinome. Panel member name: SIK2; format: functional
[9] = molecular target: Mitogen-activated protein kinase kinase kinase kinase 4 (Homo sapiens, UniProt O95819); format: functional
[10] = molecular target: Mitogen-activated protein kinase kinase kinase 10 (Homo sapiens, UniProt Q02779); test: Navigating the Kinome. Panel member name: MAP3K10; format: functional

## c1ccc2nc3cc4[nH]cnc4cc3nc2c1
[1]
  EC50: 7.59 µM (inconclusive)
ORF 73
  AC50: 7.45 µM (active)
[2]
  IC50: > 100 µM (inactive)
Troponin, cardiac muscle
  EC50: 5.37 µM (active)
Keap1/Nrf2
  AC50: 10.4 µM (active)
Protein RecA
  EC50: 29.6 µM (inconclusive)
Caspase-6
  AC50: 33 µM (active)

## CCCCC(=O)Nc1cc(-c2c[nH]c3ncccc23)cc(Cl)n1
[3]
  Ki: 0.000501 µM (active)
[4]
  Ki: > 3.98 µM (inactive)

## Oc1ccc(-c2nc(-c3ccncc3)c(-c3ccc(F)cc3)[nH]2)cc1 [SB-202190]
Large T antigen
  IC50: 4.87 µM (active)
[5]
  Ki: > 3.16 µM (inactive)
[6]
  Ki: > 6.31 µM (inactive)
[7]
  Ki: 2.51 µM (active)
[8]
  Ki: > 3.98 µM (inactive)
[9]
  Ki: 1 µM (active)
[10]
  Ki: > 3.16 µM (inactive)
